Source: patent US5990346A, “Prostaglandins and processes for production thereof” (Teijin Limited, priority 1995, dated 1999)

test system: platelets (platelet aggregation); assay: Inhibitory activity of platelet aggregation in rats; format: cell-based, Wistar rats (male); conditions: rat platelet rich plasma; 100 μM adenosine 2-phosphoric acid (5 μl) induced; 37° C.; read-out: Activity Suppressing Platelet Aggregation (Rats) IC50
Description: Measurement of Inhibitory Activity of Platelet Aggregation in Rats
Wistar rats (male, approximately 400 g) were made to fast for 1 day, then the entire blood was taken from the abdominal artery under anesthesia by ether. To this was added a 3.8% aqueous solution of sodium citrate in a 1/10 amount followed by immediate mixture. This was centrifuged at 1000 rpm for 10 minutes. The top layer was used as the platelet rich plasma. The bottom layer was centrifuged at 3000 rpm for 10 minutes and the top layer was used as the platelet poor plasma. The platelet rich plasma was diluted by the platelet poor plasma to give a platelet count of […]. This was used for the measurement. Note that the platelets were measured using an automatic blood cell counter MEK-4500 (Nihon Koden). The platelet aggregation was measured by measuring the turbidity using an NBS HEMATRACER 801 (M. C. Medical). 90 μl of the platelets were placed in cuvettes, then 5 μl of the different test compounds were added to give the target final concentration, then these were heated for 1 minute at 37° C., then 5 μl of an aqueous solution of 100 μM adenosine 2-phosphoric acid (M. C. Medical) was added to cause platelet aggregation. The activity inhibiting aggregation was found from the following formula: […]
Aggregation inhibiting rate (%)
={1-(maximum change in turbidity at time of addition of test compound)
.div.(maximum change in turbidity at time of no addition of test compound)}

IC50 [nM]	SMILES
760	CCCC[C@@H](C)C[C@H](O)/C=C/[C@@H]1C(SCCCCCC(=O)OC)=CC[C@H]1O [drawing 104]
2200	CCCC[C@@H](C)C[C@H](O)/C=C/[C@@H]1C(SCCCCCC(=O)O)=CC[C@H]1O [drawing 105]
4500	CCCC[C@@H](C)C[C@H](O)/C=C/[C@@H]1C(SCCCCCC(=O)OC)=C(C)C[C@H]1O [drawing 103]

test system: vascular smooth muscle cells (cell migration caused by PDGF); assay: Inhibitory activity of cell migration caused by PDGF (Transwell chamber); format: cell-based; conditions: human PDGF 10 ng/ml, 37° C., 6 hours
Description: Measurement of Inhibitory Activity of Cell Migration Caused by PDGF
To evaluate the activity of the test compounds listed in the following table to inhibit cell migration caused by PDGF, the migrating cells caused by human platelet derived growth factor (PDGF) were measured in the following way using the vascular smooth muscle cells derived from normal human arteries (made by Kurabo) and according to the method of MaCarthy et al. (J. Cell. Biol. 97, 772-777 (1983)). That is, a Transwell Chamber (Costar Co., registered trademark) was used to measure the inhibitory action. The chamber was divided into two layers, upper and lower, by a 8 μm pore size membrane filter (PVP-free polycarbonate filter, Nucleopore Co., registered trademark). […] The cells on the upper surface of the filter were removed by wiping with a cotton swab and the cells that had migrated to the lower surface of the filter were counted under a high output microscope (×200). Usually, five fields were counted per filter. […]

IC50 [nM]	SMILES
73	CC1=C(SCCCCCC(=O)O)[C@@H](/C=C/C(O)Cc2ccccc2)[C@H](O)C1 (single isomer, unassigned) [Example 34]
81	COC(=O)CCCCCSC1=C(C)C[C@@H](O)[C@@H]1/C=C/C(O)Cc1ccccc1 (single isomer, unassigned) [drawing 100]

test system: THP-1 cells (cell migration caused by MCP-1); assay: Inhibitory activity of cell migration caused by MCP-1 (microchemotaxis chamber); format: cell-based; conditions: Homo sapiens, THP-1, 2 h, recombinant human MCP-1 20 ng/ml, 37° C.
Description: Measurement of Inhibitory Activity of Cell Migration Caused by MCP-1
To evaluate the activity of the test compounds listed in the following table in inhibiting cell migration, the cell migration caused by the monocyte chemotactic protein MCP-1/MCAF was measured using human premonocyte-derived leukemia cells THP-1 (ATCCTIB203) as migrating cells and the method of FALK et al. (J. Immunol. Methods, vol. 33, pp. 239 to 247 (1980)) as follows. That is, to the upper chamber (200 μl) of a 96-well microchemotaxis chamber (made by Neuroprobe Co.) was added 2×10^6 /ml THP-1 cells (10% fetal calf serum (FCS) containing RPMI-1640 medium (made by Flow Laboratories Co.), while to the lower chamber (35 μl) was placed recombinant human MCP-1 (made by Peprotech Co.) diluted by the same solution to give a final concentration of 20 ng/ml. Between the two chambers, a polycarbonate filter (pore size 5 μm, PVP-free, made by Neuroprobe Co.) was affixed. Incubation was performed at 37° C. in the presence of 5% CO2 for 2 hours. The filter was taken out and the cells migrating to the lower surface of the filter were immobilized and stained by a DiffQuick solution (made by Kokusai Shiyaku Co.) Next, a Breedmeter (made by Molecular Device Co.) was used for measurement at a measurement wavelength of 550 nm and the mean value of three wells was found and used as an indicator of the number of migrating cells. At this time, the test compound was added to the upper chamber together with THP-1 cells in various concentrations to find the cell migration inhibitory activity. The cell migration inhibition % was found by dividing the (number of migrating cells caused by MCP-1 added to the lower chamber in the case of addition of the test compound to the upper chamber)-(number of migrating cells in the case of no test compound added to the upper chamber and no MCP-1 added to the lower chamber) by (number of migrating cells caused by MCP-1 added to the lower chamber in the case of no test compound added to the upper chamber)-(number of migrating cells in the case of no test compound added to the upper chamber and no MCP-1 added to the lower chamber).

SMILES	IC50 [nM]
COC(=O)COCCCSC1=C(C)C[C@@H](O)[C@@H]1/C=C/C(O)Cc1ccccc1 (single isomer, unassigned)	360
CCCC[C@@H](C)C[C@H](O)/C=C/[C@@H]1C(SCCCCCC(=O)OC)=C(C(C)=O)C[C@H]1O	210
COC(=O)CCCCCSC1=C(C2CC2)C[C@@H](O)[C@@H]1/C=C/C(O)Cc1ccccc1 (single isomer, unassigned)	200
CCCC[C@@H](C)C[C@H](O)/C=C/[C@@H]1C(SCCCCCC(=O)OC)=C(C(F)(F)F)C[C@H]1O	2500
COC(=O)CCCCCSC1=CC[C@@H](O)[C@@H]1/C=C/[C@@H](O)Cc1ccccc1	380
CCCCCC1=C(SCCCCCC(=O)OC)[C@@H](/C=C/[C@@H](O)C[C@H](C)CCCC)[C@H](O)C1	450
CCCC[C@@H](C)C[C@H](O)/C=C/[C@@H]1C(SCCCCCC(=O)OC)=C(C=O)C[C@H]1O	190
CCCC[C@@H](C)C[C@H](O)/C=C/[C@@H]1C(SCCCCCC(=O)OC)=C(CCC(C)(C)C)C[C@H]1O	600
CCCC[C@@H](C)C[C@H](O)/C=C/[C@@H]1C(SCCCCCC(=O)OC)=C(C(=O)OC)C[C@H]1O	470

Further lines, results first:

IC50 [nM]	SMILES
150	CCCC[C@@H](C)C[C@H](O)/C=C/[C@@H]1C(SCCCCCC(=O)O)=CC[C@H]1O [drawing 90]
120	COC(=O)CCCCCSC1=C(C)C[C@@H](O)[C@@H]1CCC(O)Cc1ccccc1 (some centres unmarked)
72	CCCC[C@@H](C)C[C@H](O)/C=C/[C@@H]1C(SCCCCCC(=O)O)=C(C)C[C@H]1O
65	COC(=O)CCCCCCC1=C(C)C[C@@H](O)[C@@H]1/C=C/C(O)Cc1ccccc1 (single isomer, unassigned)
26	CCCC[C@@H](C)C[C@H](O)/C=C/[C@@H]1C(SCCCCCC(=O)OC)=C(C)C[C@H]1O [drawing 82]
16	CC1=C(SCCCCCC(=O)O)[C@@H](/C=C/C(O)Cc2ccccc2)[C@H](O)C1 (single isomer, unassigned) [Example 34]
15	COC(=O)CCCCCSC1=C(C)CCC1/C=C/[C@@H](O)Cc1ccccc1 (single isomer, unassigned)
13	CCCC[C@@H](C)C[C@H](O)/C=C/[C@@H]1C(SCCCCCC(=O)OC)=CC[C@H]1O [drawing 89]

same assay, conditions: recombinant human MCP-1 20 ng/ml, 37° C., 2 hours

IC50 [nM]	SMILES
210	COC(=O)CCCCCSC1=C(C)C[C@@H](O)[C@@H]1/C=C/C(O)Cc1ccccc1 (single isomer, unassigned) [drawing 92]
10	COC(=O)CCCCCSC1=C(C)C[C@@H](O)[C@@H]1/C=C/C(O)Cc1ccccc1 (single isomer, unassigned) [drawing 93]

test system: thickening of intima of carotid artery of rat; assay: Thickening of intima of carotid artery of rat due to balloon catheter; format: in vivo, Male Wistar rats; conditions: 3.2 μg/rat/hr subcutaneously, 3 days before to 11 days after surgery; measured after 14 days; control 0.935 ± 0.377
Description: Thickening of Intima of Carotid Artery of Rat Due to Balloon Catheter
The test was performed in the following manner in accordance with the method of Crose et al. (Lab. Invest., vol. 49, p. 206, 1983). Male Wistar rats having a body weight of 300 to 350 g were used. The neck of each rat was opened under anesthesia by sodium pentobarbitol, then a balloon catheter (Fogarty, 2F) was inserted from the right external carotid artery, until the starting portion of the common carotid artery. The balloon was expanded by physiological saline to such an extent causing a light resistance, then the catheter was pulled out in that state up to the carotid artery to give trauma to the intima. This procedure was repeated three times, then the catheter was withdrawn and the external carotid artery was sewn up. After 14 days, the chest was opened under anesthesia by diethyl ether, refluxing was performed from the aorta by a Carnoa solution (methanol:chloroform:acetic acid=6:3:1), then the right common carotid artery was excised and immobilized by neutral formalin solution. The immobilized carotid artery was dyed by Elasticavan Gieson dye, then the areas of the Media and thickened portion of the Intima were measured by an image resolution device (LUZEX2D). […]

SMILES	Intima/media (Average ± standard error)
CCCC[C@@H](C)C[C@H](O)/C=C/[C@@H]1C(SCCCCCC(=O)OC)=CC[C@H]1O [Example 28, methyl (11R,12S,13E,15S,17R)-11,15-dihydroxy-17,20-dimethyl-7-thiaprosta-8,13-dienoate]	0.702 ± 0.241

same assay, conditions: (1-T/C)×100; 3.2 μg/rat/hr subcutaneously; vs control group

SMILES	Suppression Rate (intima thickening suppression rate) [%]
CCCC[C@@H](C)C[C@H](O)/C=C/[C@@H]1C(SCCCCCC(=O)OC)=CC[C@H]1O [Example 28, methyl (11R,12S,13E,15S,17R)-11,15-dihydroxy-17,20-dimethyl-7-thiaprosta-8,13-dienoate]	25
